Patent publication US10227331B2 (priority 2015, dated 2019)
Where two headings read alike, the source gives them in different places.

Columns and labels:
[1] = system: Klebsiella pneumoniae expressing VIM-1 (IHMA599644); assay type: cell-based; settings: with imipenem 1 μg/ml; 95% inhibition of bacterial growth
Procedure, shortened: (§1)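 Colonies from overnight 35 °C blood-agar cultures were suspended in saline, diluted 1:100 into 1.1× CAMHB and exposed to test compound with or without imipenem at 1 μg/ml. After 22–24 h at 35 °C, absorbance was read to find the concentration restoring imipenem susceptibility.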

[2] = system: Escherichia coli expressing NDM-1 (CLB30005, CLB30016); assay type: cell-based; settings: with imipenem 1 μg/ml; 95% inhibition of bacterial growth
Procedure, shortened: as §1

[3] = system: Serratia marcescens expressing IMP-1 (CL5741); assay type: cell-based; settings: with imipenem 1 μg/ml; 95% inhibition of bacterial growth
Procedure, shortened: as §1

[4] = system: P. aeruginosa expressing IMP-1, efflux+ (MB9798); assay type: cell-based, Pseudomonas aeruginosa; settings: for P. aeruginosa expressing IMP-1, efflux+ (MB9798) MITC95: imipenem at 2 μg/mL, in the presence of a class A, C, D serine β-lactamase inhibitor closely related to relebactam; for Efflux ratio: ratio MITC95 PA_9798/MITC95 PA_9799
Text: (§2) The strain background is Pseudomonas aeruginosa PAO1.

[5] = system: P. aeruginosa expressing IMP-1, efflux− (MB9799); assay: Efflux: concentration of MBL inhibitor which restores susceptibility to imipenem; assay type: cell-based, Pseudomonas aeruginosa; settings: imipenem at 2 μg/mL, in the presence of a class A, C, D serine β-lactamase inhibitor closely related to relebactam
Text: as §2

VIM-1 = VIM-1 (Pseudomonas aeruginosa (strain ATCC 15692 / DSM 22644 / CIP 104116 / JCM 14847 / LMG 12228 / 1C / PRS 101 / PAO1), UniProt A0A0F7KYQ8); assay: biochemical; settings: CCF2-FA substrate, 2 hours at 25° C
Procedure, shortened: (§3)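 Two-hour, 25° C incubation of enzyme with inhibitor and CCF2-FA (7-hydroxycoumarin–cephalosporin–fluorescein). Fluorescence read-out; IC50 via 4-parameter fit.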

NDM-1 = NDM-1 (Klebsiella pneumoniae, UniProt C7C422); assay: biochemical; assay type: biochemical; settings: CCF2-FA substrate, 2 hours at 25° C; read-out: NDM-1 IC50
Procedure, shortened: as §3

IMP-1 = IMP-1 (Serratia marcescens, UniProt P52699); assay: biochemical; assay type: biochemical
Procedure, shortened: as §3

[6] = CCF2-FA substrate, 2 hours at 25° C, read-out: IMP-1 IC50

IMP-1, sequence (P52699 whole entry, looked up, species assumed): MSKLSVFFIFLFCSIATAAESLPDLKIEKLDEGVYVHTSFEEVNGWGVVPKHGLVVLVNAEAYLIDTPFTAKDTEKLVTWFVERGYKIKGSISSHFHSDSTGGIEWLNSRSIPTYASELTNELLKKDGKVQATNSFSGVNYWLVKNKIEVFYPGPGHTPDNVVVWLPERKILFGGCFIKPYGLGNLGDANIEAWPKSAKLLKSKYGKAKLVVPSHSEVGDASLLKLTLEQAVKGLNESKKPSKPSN
NDM-1, sequence (C7C422 whole entry, looked up, species assumed): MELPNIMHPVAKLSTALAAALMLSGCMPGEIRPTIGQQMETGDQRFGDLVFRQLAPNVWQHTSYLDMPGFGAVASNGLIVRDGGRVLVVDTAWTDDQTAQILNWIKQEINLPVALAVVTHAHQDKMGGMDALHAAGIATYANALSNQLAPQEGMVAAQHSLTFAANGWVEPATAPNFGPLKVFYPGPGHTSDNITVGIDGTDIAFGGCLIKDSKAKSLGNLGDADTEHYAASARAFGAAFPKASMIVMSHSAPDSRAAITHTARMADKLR

Structure (SMILES) | Klebsiella pneumoniae expressing VIM-1 (IHMA599644) MITC95 [1] [µM] | Escherichia coli expressing NDM-1 (CLB30016) MITC95 [2] [µM] | Serratia marcescens expressing IMP-1 (CL5741) MITC95 [3] [µM] | P. aeruginosa expressing IMP-1, efflux+ (MB9798) MITC95 [4] [µM] | Efflux ratio [4] | P. aeruginosa expressing IMP-1, efflux− (MB9799) MITC95 [5] [µM] | IC50 (VIM-1) [pM] | IC50 (NDM-1) [pM] | IC50 (IMP-1; [6]) [pM] | IC50 (IMP-1) [pM]
Nc1ccc2c(-c3ccc(S(=O)(=O)C4CNC4)c(S(N)(=O)=O)c3-c3nnn[nH]3)ccnc2n1 [Example 27, 3-(7-amino-1,8-naphthyridin-4-yl)-6-(azetidin-3-ylsulfonyl)-2-(1H-tetrazol-5-yl)benzenesulfonamide] | 3.125 | 6.25 | 3.125 | 6.25 | 4.00 | 1.563 | 330 | 185 | 1750 | 
Nc1nc2cccc(-c3ccc(S(=O)(=O)C4CNC4)c(S(N)(=O)=O)c3-c3nn[nH]n3)c2o1 [Example 28, 3-(2-aminobenzo[d]oxazol-7-yl)-6-(azetidin-3-ylsulfonyl)-2-(2H-tetrazol-5-yl)benzenesulfonamide] | 3.125 | 1.563 | 3.125 | 6.25 | 4.00 | 1.563 | 173 | 48.9 |  | 1330
Nc1nc2ccc(-c3ccc(S(=O)(=O)C4CNC4)c(S(N)(=O)=O)c3-c3nn[nH]n3)cc2o1 [Example 29, 3-(2-aminobenzo[d]oxazol-6-yl)-6-(azetidin-3-ylsulfonyl)-2-(2H-tetrazol-5-yl)benzenesulfonamide] | 3.125 | 1.563 | 1.563 | 3.125 | 2.00 | 1.563 | 328 | 240 | 313 | 
Nc1nc2c(-c3ccc(S(=O)(=O)C4CNC4)c(S(N)(=O)=O)c3-c3nn[nH]n3)cccc2o1 [Example 30, 3-(2-aminobenzo[d]oxazol-4-yl)-6-(azetidin-3-ylsulfonyl)-2-(2H-tetrazol-5-yl)benzenesulfonamide] | 3.125 | 0.7813 | 1.563 | 1.563 | 1.00 | 1.563 | 409 | 84.6 | 585 | 
Nc1nc2cc(-c3ccc(S(=O)(=O)C4CNC4)c(S(N)(=O)=O)c3-c3nn[nH]n3)ccc2o1 [Example 31, 3-(2-aminobenzo[d]oxazol-5-yl)-6-(azetidin-3-ylsulfonyl)-2-(2H-tetrazol-5-yl)benzenesulfonamide] | 3.125 | 1.563 | 1.563 | 6.25 | 4.00 | 1.563 | 373 | 336 | 1370 | 
Cc1ccc(-c2ccc(S(=O)(=O)C3CNC3)c(S(N)(=O)=O)c2-c2nn[nH]n2)c2nc(N)sc12 [Example 32, 3-(2-amino-7-methylbenzo[d]thiazol-4-yl)-6-(azetidin-3-ylsulfonyl)-2-(2H-tetrazol-5-yl)benzenesulfonamide] | 1.563 | 0.3906 | 0.7813 | 1.563 | 2.00 | 0.7813 | 106 | 33.1 | 138 | 
Cc1ccc(-c2ccc(S(=O)(=O)C3CNC3)c(S(N)(=O)=O)c2-c2nn[nH]n2)c2sc(N)nc12 [Example 33, 3-(2-amino-4-methylbenzo[d]thiazol-7-yl)-6-(azetidin-3-ylsulfonyl)-2-(2H-tetrazol-5-yl)benzenesulfonamide] | 3.125 | 1.563 | 1.563 | 3.125 | 2.00 | 1.563 | 120 | 23.9 | 296 | 
Nc1nc2c(-c3ccc(S(=O)(=O)C4CNC4)c(S(N)(=O)=O)c3-c3nn[nH]n3)ccc(C(F)(F)F)c2s1 [Example 34, 3-(2-amino-7-(trifluoromethyl)benzo[d]thiazol-4-yl)-6-(azetidin-3-ylsulfonyl)-2-(2H-tetrazol-5-yl)benzenesulfonamide] | 1.563 | 0.7813 | 0.7813 | 6.25 | 8.00 | 0.7813 | 175 | 71.3 | 229 | 
Nc1cc2cccc(-c3ccc(S(=O)(=O)C4CNC4)c(S(N)(=O)=O)c3-c3nn[nH]n3)c2cn1 [Example 35, 3-(3-aminoisoquinolin-8-yl)-6-(azetidin-3-ylsulfonyl)-2-(2H-tetrazol-5-yl)benzenesulfonamide] | 6.25 | 1.563 | 1.563 | 1.563 | 1.00 | 1.563 | 243 | 69.5 | 503 | 
Nc1ccc2cccc(-c3ccc(S(=O)(=O)C4CNC4)c(S(N)(=O)=O)c3-c3nn[nH]n3)c2n1 [Example 36, 3-(2-aminoquinolin-8-yl)-6-(azetidin-3-ylsulfonyl)-2-(2H-tetrazol-5-yl)benzenesulfonamide] | 1.563 | 3.125 | 0.7813 | 0.7813 | 1.00 | 0.7813 | 282 | 104 | 357 | 
Nc1nc2c(-c3ccc(S(=O)(=O)C4CNC4)c(S(N)(=O)=O)c3-c3nn[nH]n3)cccc2c(=O)[nH]1 [Example 37, 3-(2-amino-4-oxo-3,4-dihydroquinazolin-8-yl)-6-(azetidin-3-ylsulfonyl)-2-(2H-tetrazol-5-yl)benzenesulfonamide] | 6.25 | 25 | 3.125 | 3.125 | 2.00 | 1.563 | 348 | 81 | 1900 | 
